Data on 18 compounds can be found in patent US11459332B2, “Substituted 2-azabicyclo[3.1.0]hexanes as TRK kinases inhibitors” (FOCHON BIOSCIENCES, LTD., priority 2018, dated 2022).

Common to all, as to format: cell-based
One experiment deals with T1, ETV6-TRKC (Homo sapiens, UniProt Q16288).
T1 construct: ETV6 (fusion partner, N-terminal part); expressed in transfected cells; the other entry of the earlier key: ETV6 (P41212, Transcription factor ETV6)
Kind of experiment: Engineered Ba/F3 cell proliferation inhibition (MTS), ETV6-TRKC. As to conditions: Ba/F3-ETV6-TRKC cells, 72 h. From the text: (§1) MTS testing kit was purchased from Promega (Madison, Wis., USA). The RPMI-1640, Fetal bovine serum and Penicillin-Streptomycin were purchased from Gibco (San Francisco, Calif., USA). Dimethyl sulfoxide (DMSO) and Puromycin were purchased from Sigma (St. Louis, Mo., USA). Mouse interleukin-3 (IL-3) was purchased from Cell signaling Technology (Boston, Mass., USA).
(§2) To investigate whether a compound is able to inhibit the activity of TRK fusion mutation in cells, a mechanism-based assay using engineered Ba/F3 cell lines stably overexpressing oncogenic rearrangement or gene mutation of TRK (TPM3-TRKA, TPM3-TRKA-G595R, AFAP1-TRKB, ETV6-TRKC and ETV6-TRKC-G623R) were developed. In this assay, inhibition of TRK fusion mutation was detected by the cell proliferation inhibition of engineered Ba/F3 cells. Engineered Ba/F3 cells were cultured in culture flasks to 40-80% confluence in RPMI-1640 supplemented with 10% fetal bovine serum, 2 ug/mL puromycin. Cells were collected and plated onto 96-well plates at desired cell density (Ba/F3-TPM3-TRKA: 3×10^4/mL, Ba/F3-TPM3-TRKA-G595R: 1×10^5/mL, Ba/F3-AFAP1-TRKB: 1×10^5/mL, Ba/F3-ETV6-TRKC: 3×10^4/mL, Ba/F3-ETV6-TRKC-G623R: 3×10^4/mL). Plates were incubated at 37° C., with 5% CO2 for 4 h. Compounds were then added to the plates with the final compound concentrations of 10000, 3333, 1111, […], 123, 41.2, 13.7, 4.6 and 1.5 nM. Plates were incubated at 37° C., with 5% CO2 for 72 h. A mixture of 20 μl MTS/100 μl medium were added to each well and the plates were incubated at 37° C., with 5% CO2 for exactly 2 h. The reaction was stopped by adding 25 μl of 10% SDS per well. The absorbance was measured at 490 nm and 650 nm (reference wavelength). IC50 was calculated using GraphPad Prism 5.0 software.

In a further experiment the test system is KM12 cells. Description: KM12 cells proliferation inhibition (MTS), mechanism-based TRK assay. As to conditions: Homo sapiens, 72 h.
Excerpt: as §1
To investigate whether a compound is able to inhibit the activity of TRK in cells, a mechanism-based assay using KM12 cells was developed. In this assay, inhibition of TRK was detected by the inhibition of KM12 cells proliferation. KM12 cells were cultured in culture flasks to 40-80% confluence in RPMI-1640 plus 10% fetal bovine serum. Cells were collected and plated onto 96-well plates at 1000 cells/well. Plates were incubated at 37° C., with 5% CO2 for 4 h. Compounds were added to the plates, the final compound concentrations were […], 123.5, 41.2, 13.7, 4.6 and 1.5 nM. Place plates at 37° C., with 5% CO2 for KM12 cells 72 h. 20 μl MTS/100 μl medium mixture solution were added to each well and incubate the plates for exactly 2 h. Stop the reaction by adding 25 μl 10% SDS per well. Measure absorbance at 490 nm and 650 nm (reference wavelength). IC50 was calculated using GraphPad Prism 5.0.

Another experiment deals with T2, TPM3-TRKA (Homo sapiens, UniProt P04629).
T2 construct: TPM3 (fusion partner, N-terminal part); expressed in transfected cells; the other entry of the earlier key: TPM3 (P06753, Tropomyosin alpha-3 chain)
T2 sequence (P04629 510-796 limits assumed): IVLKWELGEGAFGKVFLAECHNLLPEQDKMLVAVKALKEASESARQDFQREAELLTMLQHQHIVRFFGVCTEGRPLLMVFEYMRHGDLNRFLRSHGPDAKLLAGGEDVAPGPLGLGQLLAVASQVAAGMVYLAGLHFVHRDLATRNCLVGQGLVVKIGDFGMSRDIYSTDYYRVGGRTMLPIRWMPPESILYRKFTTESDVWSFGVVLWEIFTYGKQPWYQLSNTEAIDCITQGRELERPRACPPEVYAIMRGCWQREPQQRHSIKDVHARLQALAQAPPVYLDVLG
Description: Engineered Ba/F3 cell proliferation inhibition (MTS), TPM3-TRKA. The conditions noted are these: Ba/F3-TPM3-TRKA cells, 72 h.
Excerpt: as §1, §2

Another experiment addresses T3, TPM3-TRKA-G595R (Homo sapiens, UniProt P04629, G595R).
T3 construct: TPM3 (fusion partner, N-terminal part); expressed in transfected cells; the other entry of the earlier key: TPM3 (P06753, Tropomyosin alpha-3 chain)
Kind of experiment: Engineered Ba/F3 cell proliferation inhibition (MTS), TPM3-TRKA-G595R. The conditions noted are these: Ba/F3-TPM3-TRKA-G595R cells, 72 h.
Excerpt: as §1, §2

T1 sequence (Q16288 530-825 isoform Q16288-3 limits assumed): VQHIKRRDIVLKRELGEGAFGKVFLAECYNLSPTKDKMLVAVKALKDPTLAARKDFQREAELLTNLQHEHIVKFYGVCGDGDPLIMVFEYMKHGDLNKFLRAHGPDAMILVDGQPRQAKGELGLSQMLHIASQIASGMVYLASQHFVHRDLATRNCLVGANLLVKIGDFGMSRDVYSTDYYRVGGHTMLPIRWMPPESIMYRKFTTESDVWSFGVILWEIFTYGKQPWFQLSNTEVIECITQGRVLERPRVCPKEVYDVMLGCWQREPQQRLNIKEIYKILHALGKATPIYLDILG
T3 sequence (P04629 510-796 G595R limits assumed): as the sequence (P04629 510-796 limits assumed) above, with G86R counted along it

In the case of `O=C(Nc1cnn2ccc(N3CC[C@H]4C[C@]43c3cc(F)ccc3Cl)nc12)N1CC[C@@H](O)C1` [Example 3, (R)—N-(5-((1R,5S)-1-(2-chloro-5-fluorophenyl)-2-azabicyclo[3.1.0]hexan-2-yl)pyrazolo[1,5-a]pyrimidin-3-yl)-3-hydroxypyrrolidine-1-carboxamide], the IC50 against ETV6-TRKC was 17 nM; in the experiment on KM12 cells, 36 nM; against TPM3-TRKA, 47 nM.

For the compound `O=C(Nc1cnn2ccc(N3CC[C@H]4C[C@]43c3cc(F)ccc3F)nc12)N1CCC(F)(F)C1` [Example 12, N-(5-((1R,5S)-1-(2,5-difluorophenyl)-2-azabicyclo [3.1.0]hexan-2-yl)pyrazolo[1,5-a]pyrimidin-3-yl)-3,3-difluoropyrrolidine-1-carboxamide], the IC50 against ETV6-TRKC stood at 9 nM; in the experiment with KM12 cells it was 2 nM.

With `O=C(Nc1cnn2ccc(N3CC[C@H]4C[C@]43c3cc(F)ccc3Cl)nc12)N1CC[C@H](O)C1` [Example 2, (S)—N-(5-((1R,5S)-1-(2-chloro-5-fluorophenyl)-2-azabicyclo[3.1.0]hexan-2-yl)pyrazolo[1,5-a]pyrimidin-3-yl)-3-hydroxypyrrolidine-1-carboxamide], the results for the IC50 against ETV6-TRKC, in the experiment with KM12 cells and at TPM3-TRKA were 7 nM, 42 nM and 44 nM, respectively.

Compound `O=C(Nc1cnn2ccc(N3CC[C@H]4C[C@]43c3cc(F)ccc3F)nc12)N1CC[C@@H](F)C1` [Example 11, (R)-N-(5-((1R,5S)-1-(2,5-difluorophenyl)-2-azabicyclo[3.1.0]hexan-2-yl)pyrazolo [1,5-a]pyrimidin-3-yl)-3-fluoropyrrolidine-l-carboxamide] came in with an IC50 in the experiment on KM12 cells of 53 nM.

`Cc1cccnc1C(=O)Nc1cnn2ccc(N3CC[C@H]4C[C@]43c3cc(F)ccc3F)nc12` [Example 17, N-(5-((1R,5S)-1-(2,5-difluorophenyl)-2-azabicyclo [3.1.0]hexan-2-yl)pyrazolo[1,5-a]pyrimidin-3-yl)-3-methylpicolinamide]: the results for the 50% inhibitory concentration (IC50) against ETV6-TRKC, with KM12 cells and against TPM3-TRKA were 1 nM, 1 nM and 2 nM, respectively.

Turning to `O=C(Nc1cnn2ccc(N3CC[C@H]4C[C@]43c3cc(F)ccc3F)nc12)N1CC[C@@H](O)C1` [Example 7, (R)-N-(5-((1R,5S)-1-(2,5-difluorophenyl)-2-azabicyclo[3.1.0]hexan-2-yl)pyrazolo[1,5-a]pyrimidin-3-yl)-3-hydroxypyrrolidine-1-carboxamide], the half-maximal inhibitory concentration (IC50) against ETV6-TRKC turned out to be 3 nM; in the experiment on KM12 cells it was 20 nM; against TPM3-TRKA, 3 nM.

For the compound `O=C(Nc1cnc2ccc(N3CC[C@H]4C[C@]43c3cc(F)ccc3F)nn12)N1CC[C@H](O)C1` [Example 4, (S)—N-(6-((1R,5S)-1-(2,5-difluorophenyl)-2-azabicyclo[3.1.0]hexan-2-yl)imidazo[1,2-b]pyridazin-3-yl)-3-hydroxypyrrolidine-1-carboxamide], the IC50 on ETV6-TRKC is 1 nM; in the experiment with KM12 cells, 2 nM; at TPM3-TRKA, 5 nM.

Consider `O=C(Nc1cnn2ccc(N3CC[C@H]4C[C@]43c3cc(F)ccc3F)nc12)c1ccc(F)cn1` [Example 19, N-(5-((1R,5S)-1-(2,5-difluorophenyl)-2-azabicyclo [3.1.0]hexan-2-yl)pyrazolo[1,5-a]pyrimidin-3-yl)-5-fluoropicolinamide], for which the IC50 came out at 1 nM against ETV6-TRKC, 1 nM in the experiment on KM12 cells and 2 nM against TPM3-TRKA.

For `O=C(Nc1cnn2ccc(N3CC[C@H]4C[C@]43c3cc(F)ccc3F)nc12)c1ccccn1` [Example 15, N-(5-((1R,5S)-1-(2,5-difluorophenyl)-2-azabicyclo [3.1.0]hexan-2-yl)pyrazolo[1,5-a]pyrimidin-3-yl) picolinamide], the IC50 is 1 nM against ETV6-TRKC, 1 nM in the experiment on KM12 cells, 1 nM against TPM3-TRKA and 18 nM on TPM3-TRKA-G595R.

Turning to `O=C(Nc1cnn2ccc(N3CC[C@H]4C[C@]43c3cc(F)ccc3F)nc12)c1ccc(Cl)cn1` [Example 24, 5-chloro-N-(5-((1R,5S)-1-(2,5-difluorophenyl)-2-azabicyclo[3.1.0]hexan-2-yl)pyrazolo[1,5-a]pyrimidin-3-yl)picolinamide], the IC50 against ETV6-TRKC is 16 nM; with KM12 cells, 38 nM.

As to `Cc1cnc(C(=O)Nc2cnn3ccc(N4CC[C@H]5C[C@]54c4cc(F)ccc4F)nc23)nc1` [Example 20, N-(5-((1R,5S)-1-(2,5-difluorophenyl)-2-azabicyclo [3.1.0]hexan-2-yl)pyrazolo[1,5-a]pyrimidin-3-yl)-5-methylpyrimidine-2-carboxamide], the IC50 at ETV6-TRKC was found to be 1 nM; in the experiment with KM12 cells it was 6 nM; against TPM3-TRKA, 14 nM; against TPM3-TRKA-G595R it was 67 nM.

For `O=C(Nc1cnc2ccc(N3CC[C@H]4C[C@]43c3cc(F)ccc3F)nn12)N1CC[C@@H](O)C1` [Example 8, (R)-N-(6-((1R,5S)-1-(2,5-difluorophenyl)-2-azabicyclo[3.1.0]hexan-2-yl)imidazo[1,2-b]pyridazin-3-yl)-3-hydroxypyrrolidine-1-carboxamide], the IC50 on ETV6-TRKC was determined as 5 nM; with KM12 cells it was 25 nM; at TPM3-TRKA, 5 nM.

Turning to `Cc1ccc(C(=O)Nc2cnn3ccc(N4CC[C@H]5C[C@]54c4cc(F)ccc4F)nc23)nc1` [Example 18, N-(5-((1R,5S)-1-(2,5-difluorophenyl)-2-azabicyclo [3.1,0]hexan-2-yl)pyrazolo[1,5-a]pyrimidin-3-yl)-5-methylpicolinamide], the IC50 against ETV6-TRKC was 1 nM; with KM12 cells, 2 nM; on TPM3-TRKA it was 33 nM.

Consider `O=C1c2ccccc2CN1c1cnn2ccc(N3CC[C@H]4C[C@]43c3cc(F)ccc3F)nc12` [Example 28, 2-(5-((1R,5S)-1-(2,5-difluorophenyl)-2-azabicyclo [3.1.0]hexan-2-yl)pyrazolo[1,5-a]pyrimidin-3-yl)isoindolin-1-one], for which the 50% inhibitory concentration (IC50) stood at 2 nM against ETV6-TRKC and 19 nM on TPM3-TRKA.

As for `O=C(Nc1cnn2ccc(N3CC[C@H]4C[C@]43c3cc(F)ccc3F)nc12)N1CCC(F)C1` (stereo in doubt) [Example 10, (R)-N-(5-((1R,5S)-1-(2,5-difluorophenyl)-2-azabicyclo[3.1.0]hexan-2-yl)pyrazolo [1,5-a]pyrimidin-3-yl)-3-fluoropyrrolidine-1-carboxamide], the results for the IC50 at ETV6-TRKC and in the experiment on KM12 cells were 2 nM and 23 nM, respectively.

Consider `CO[C@H]1CCN(C(=O)Nc2cnn3ccc(N4CC[C@H]5C[C@]54c4cc(F)ccc4F)nc23)C1` [Example 9, (S)-N-(5-((1R,5S)-1-(2,5-difluorophenyl)-2-azabicyclo[3.1.0]hexan-2-yl)pyrazolo [1,5-a]pyrimidin-3-yl)-3-methoxypyrrolidine-1-carboxamide], for which the IC50 at ETV6-TRKC came to 4 nM; with KM12 cells, 42 nM.

As for `CC(C)c1nnc(-c2cnn3ccc(N4CC[C@H]5C[C@]54c4cc(F)ccc4F)nc23)o1` [Example 5, 2-(5-((1R,5S)-1-(2,5-difluorophenyl)-2-azabicyclo[3.1.0]hexan-2-yl)pyrazolo[1,5-a]pyrimidin-3-yl)-5-isopropyl-1,3,4-oxadiazole], the half-inhibitory concentration (IC50) was found to be 9 nM in the experiment on KM12 cells, 6 nM at TPM3-TRKA and 40 nM at TPM3-TRKA-G595R.

As to `O=C(Nc1cnn2ccc(N3CC[C@H]4C[C@]43c3cc(F)ccc3F)nc12)c1ncc(F)cn1` [Example 21, N-(5-((1R,5S)-1-(2,5-difluorophenyl)-2-azabicyclo [3.1.0]hexan-2-yl)pyrazolo[1,5-a]pyrimidin-3-yl)-5-fluoropyrimidine-2-carboxamide], the IC50 on ETV6-TRKC amounted to 1 nM; in the experiment with KM12 cells, 24 nM; at TPM3-TRKA, 10 nM.
